Source: patent publication US20250154109A1, “SODIUM CHANNEL BLOCKING COMPOUNDS, DERIVATIVES THEREOF, AND METHODS OF THEIR USE” (LATIGO BIOTHERAPEUTICS, INC, priority 2022, published 2025)

Assays:
[1] = biological target: T1, human Nav1.8 (Homo sapiens, UniProt Q9Y5Y9); test: Sophion Qpatch II assay (automated patch clamp); format: cell-based; settings: resting state block (TP1 measurement), human Nav1.8 HEK293 cells, read-out: P1 IC50
Protocol: Compounds were tested on recombinant human Nav1.8/01 stably transfected HEK293 (Eurofins, CYL3025, St. Charles, MO) cells using the Qpatch II system (Sophion Bioscience A/S, Ballerup—Denmark), an automated patch clamp device. Cells were cultured at 37° C./5% CO2 in DMEM/F-12 supplemented with 10% fetal bovine serum, lx Non-Essential Amino Acids, and selection antibiotics (0.625 μg/mL Puromycin, 400 μg/mL Geneticin, and 100 μg/mL Hygromycin). One or two days prior to recording, cells were moved to a lower temperature 30° C./5% CO2 incubator to increase surface expression of the channels. On the day of the recordings, cells in culture dishes were washed twice with Ca^2+—Mg^2+ free DPBS and treated with Detachin (Genlantis, San Diego) for 3 minutes and then resuspended in Serum Free Medium (EX-CELL® ACF CHO Medium for Cell Culture (Sigma-Aldrich) supplemented with 0.04 mg/mL soybean trypsin Inhibitor and 25 mM HEPES (all components supplied by Sigma-Aldrich, St. Louis, MO) and allowed to recover for a minimum of 20 minutes in the onboard Qstirrer. All experiments were performed at ambient temperature. Intracellular solution contained (mM): CsCl, 50; CsF, 90; MgCl2, 2; EGTA, 5; HEPES, 10; pH adjusted to 7.2 with CsOH. Extracellular solution contained (mM): NaCl, 137; KCl, 4; CaCl2), 3.8; MgCl2, 1; HEPES, 10; Glucose, 10; pH adjusted to 7.4 with NaOH. 500 nM tetrodotoxin (TTX) was added to the extracellular solution to block endogenous TTX-sensitive sodium currents.
Compounds were tested in an interleaved manner across two cohorts of wells to develop an aggregate 8-point concentration response curve. Final concentrations include 0.5% DMSO and 0.03% pluronic Acid. The concentration range spanned a range from 0.01-300 nM. Compounds were diluted 1:10 with extracellular solution within their respective cohort. (R)-2-(4-fluoro-2-methylphenoxy)-N-(3-(S-methylsulfonimidoyl)phenyl)-5-(trifluoromethyl)nicotinamide served as a positive control while DMSO (0.5% by volume) served as a vehicle control to ascertain assay performance.
Whole cell patch clamp recordings were conducted according to Sophion standard procedure for Qpatch II®. Cells were held at a holding potential of −120 mV. A depolarizing step to 10 mV for 30 ms was applied (TP1 measurement), followed by a hyperpolarization step to −100 mV for 20 ms. Due to instability observed at long depolarized potentials, there were no second TP2 measurements attempted. Inter-sweep interval was 15 sec. Following establishment of the whole-cell configuration in extracellular solution, cells were washed twice in extracellular solution containing 0.5% DMSO and 0.03% pluronic acid to stabilize the baseline current. Compounds were then applied by the Qpatch II system into each well in an ascending manner within cohort and the current was recorded for five minutes for each concentration. Percent of current remaining was determined by taking the average of the last 5 sweeps within each concentration and normalizing to the latest pre-compound saline period. The potency of the compounds was assessed on resting state block (TP1 measurement) only to obtain IC50 values. Wells whose initial sodium current magnitude were below 2 nA or whole cell resistance fell below 100 MQ were excluded from analysis.
Examples 220 to 224, Examples 237 to 257 and Example 259 are assayed using Sophion Qpatch II assay described above.

[2] = biological target: T1, human Nav1.8; test: SyncroPatch384PE assay (automated patch clamp); format: cell-based; settings: human Nav1.8/b3 CHO cells
[3] = inactivated state block (P2 measurement), read-out: P2 IC50
[4] = resting state block (P1 measurement), read-out: P1 IC50

T1 sequence (Q9Y5Y9 whole entry): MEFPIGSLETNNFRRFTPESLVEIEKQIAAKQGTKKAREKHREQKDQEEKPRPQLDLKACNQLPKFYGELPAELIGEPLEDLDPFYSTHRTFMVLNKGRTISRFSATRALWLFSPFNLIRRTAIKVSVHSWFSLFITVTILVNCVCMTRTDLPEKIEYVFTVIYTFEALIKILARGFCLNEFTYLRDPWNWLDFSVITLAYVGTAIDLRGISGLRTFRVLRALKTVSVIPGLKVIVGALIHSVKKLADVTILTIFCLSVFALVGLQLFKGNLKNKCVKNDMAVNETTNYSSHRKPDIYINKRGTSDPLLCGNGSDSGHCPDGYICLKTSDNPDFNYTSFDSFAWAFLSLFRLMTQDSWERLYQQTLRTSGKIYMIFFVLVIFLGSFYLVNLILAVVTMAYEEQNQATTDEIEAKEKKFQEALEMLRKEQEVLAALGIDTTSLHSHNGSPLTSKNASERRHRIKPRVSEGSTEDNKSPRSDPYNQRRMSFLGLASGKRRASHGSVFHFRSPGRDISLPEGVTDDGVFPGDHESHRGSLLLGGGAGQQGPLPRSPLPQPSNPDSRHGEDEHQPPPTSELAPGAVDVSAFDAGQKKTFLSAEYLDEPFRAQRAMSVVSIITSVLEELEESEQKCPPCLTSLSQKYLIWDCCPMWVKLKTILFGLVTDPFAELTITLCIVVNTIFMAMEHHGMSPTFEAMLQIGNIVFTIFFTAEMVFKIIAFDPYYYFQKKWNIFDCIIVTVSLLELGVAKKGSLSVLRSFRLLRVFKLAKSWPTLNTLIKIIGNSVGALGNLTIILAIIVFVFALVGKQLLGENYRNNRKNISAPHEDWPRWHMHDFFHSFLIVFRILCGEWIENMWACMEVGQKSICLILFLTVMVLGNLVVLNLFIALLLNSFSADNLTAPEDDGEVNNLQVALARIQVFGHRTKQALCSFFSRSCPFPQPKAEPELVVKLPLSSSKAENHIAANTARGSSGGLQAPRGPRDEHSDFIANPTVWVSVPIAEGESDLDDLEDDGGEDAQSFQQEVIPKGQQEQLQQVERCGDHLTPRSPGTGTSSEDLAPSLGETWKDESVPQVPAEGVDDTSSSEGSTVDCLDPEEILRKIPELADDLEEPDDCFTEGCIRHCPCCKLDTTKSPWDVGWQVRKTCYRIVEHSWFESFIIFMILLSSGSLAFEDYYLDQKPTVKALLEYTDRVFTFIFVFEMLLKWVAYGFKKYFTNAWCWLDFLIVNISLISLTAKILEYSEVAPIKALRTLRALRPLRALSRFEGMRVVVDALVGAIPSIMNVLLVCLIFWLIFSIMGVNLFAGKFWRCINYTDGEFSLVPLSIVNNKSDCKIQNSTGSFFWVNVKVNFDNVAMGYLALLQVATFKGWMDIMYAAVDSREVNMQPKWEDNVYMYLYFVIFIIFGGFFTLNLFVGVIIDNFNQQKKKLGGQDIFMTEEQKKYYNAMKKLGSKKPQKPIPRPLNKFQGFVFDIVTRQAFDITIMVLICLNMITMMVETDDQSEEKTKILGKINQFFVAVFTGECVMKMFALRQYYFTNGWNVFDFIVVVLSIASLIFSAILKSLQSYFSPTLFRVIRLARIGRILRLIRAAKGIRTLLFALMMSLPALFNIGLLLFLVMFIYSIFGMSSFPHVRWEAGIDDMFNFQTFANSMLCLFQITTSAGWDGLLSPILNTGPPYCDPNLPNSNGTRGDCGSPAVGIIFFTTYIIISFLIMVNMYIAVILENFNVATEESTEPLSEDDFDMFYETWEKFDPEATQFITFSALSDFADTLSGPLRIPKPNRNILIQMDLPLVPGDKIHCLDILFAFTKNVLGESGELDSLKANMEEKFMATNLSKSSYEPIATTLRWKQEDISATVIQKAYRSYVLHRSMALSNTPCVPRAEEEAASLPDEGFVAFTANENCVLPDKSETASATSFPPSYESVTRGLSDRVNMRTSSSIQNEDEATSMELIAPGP

| IC50 [1] [nM] | IC50 [2, 3] [nM] | IC50 [2, 4] [nM] | SMILES |
| --- | --- | --- | --- |
| 50 to 100 | – | – | Cc1c(C(F)(F)F)cnc(N2CCO[C@H](C(F)(F)F)C2)c1C(=O)Nc1ccnc([S@](C)(=N)=O)c1 [Example 237, 4-methyl-N-(2-((R)—S-methylsulfonimidoyl)pyridin-4-yl)-5-(trifluoromethyl)-2-((S)-2-(trifluoromethyl)morpholino)nicotinamide] |
| 50 to 100 | – | – | C[S@](=N)(=O)c1cc(NC(=O)c2cc(Cl)c(C(F)(F)F)cc2N2CCC(F)(F)CC2)ccc1F [Example 249, (S)-5-chloro-2-(4,4-difluoropiperidin-1-yl)-N-(4-fluoro-3-(S-methylsulfonimidoyl)phenyl)-4-(trifluoromethyl)benzamide] |
| > 200 | – | – | Cc1c(C(F)(F)F)cnc(N2CCO[C@@H](C(F)(F)F)C2)c1C(=O)Nc1ccnc([S@](C)(=N)=O)c1 [Example 239, 4-methyl-N-(2-((R)—S-methylsulfonimidoyl)pyridin-4-yl)-5-(trifluoromethyl)-2-((R)-2-(trifluoromethyl)morpholino)nicotinamide] |
| 50 to 100 | – | – | C[S@](=N)(=O)c1cc(NC(=O)c2cc(Cl)c(C(F)(F)F)cc2N2CCC(C(F)(F)F)CC2)ccn1 [Example 244, (S)-5-chloro-N-(2-(S-methylsulfonimidoyl)pyridin-4-yl)-4-(trifluoromethyl)-2-(4-(trifluoromethyl)piperidin-1-yl)benzamide] |
| > 200 | – | – | Cc1c(C(F)(F)F)cnc(N2CCO[C@@H](C(F)(F)F)C2)c1C(=O)Nc1cccc([S@](C)(=N)=O)c1 [Example 238, 4-methyl-N-(3-((R)—S-methylsulfonimidoyl)phenyl)-5-(trifluoromethyl)-2-((R)-2-(trifluoromethyl)morpholino)nicotinamide] |
| 5 to 50 | – | – | Cc1c(C(F)(F)F)cnc(N2CCC(F)(F)CC2)c1C(=O)Nc1cccc([S@](C)(=N)=O)c1 [Example 241, (R)-2-(4,4-difluoropiperidin-1-yl)-4-methyl-N-(3-(S-methylsulfonimidoyl)phenyl)-5-(trifluoromethyl)nicotinamide] |
| 5 to 50 | – | – | Cc1c(C(=O)Nc2ccnc([S@](C)(=N)=O)c2)c(N2CCCC(F)(F)CC2)nc(C2CC2)c1C(F)(F)F [Example 220, (R)-6-cyclopropyl-2-(4,4-difluoroazepan-1-yl)-4-methyl-N-(2-(S-methylsulfonimidoyl)pyridin-4-yl)-5-(trifluoromethyl)nicotinamide] |
| 5 to 50 | – | – | C[S@@](=N)(=O)c1cc(NC(=O)c2cc(Cl)c(C(F)(F)F)cc2N2CCC(C(F)(F)F)CC2)ccc1F [Example 245, (R)-5-chloro-N-(4-fluoro-3-(S-methylsulfonimidoyl)phenyl)-4-(trifluoromethyl)-2-(4-(trifluoromethyl)piperidin-1-yl)benzamide] |
| 100 to 200 | – | – | C[S@](=N)(=O)c1cc(NC(=O)c2cc(Cl)c(C(F)(F)F)cc2N2CCC(F)(F)CC2)ccn1 [Example 247, (S)-5-chloro-2-(4,4-difluoropiperidin-1-yl)-N-(2-(S-methylsulfonimidoyl)pyridin-4-yl)-4-(trifluoromethyl)benzamide] |
| 5 to 50 | – | – | C[S@@](=N)(=O)c1cc(NC(=O)c2cc(Cl)c(C(F)(F)F)cc2N2CCC(F)(F)CC2)ccc1F [Example 254, (R)-5-chloro-2-(4,4-difluoropiperidin-1-yl)-N-(4-fluoro-3-(S-methylsulfonimidoyl)phenyl)-4-(trifluoromethyl)benzamide] |
| 50 to 100 | – | – | C[S@@](=N)(=O)c1cc(NC(=O)c2cc(Cl)c(C(F)(F)F)cc2N2CCC(C(F)(F)F)CC2)ccn1 [Example 243, (R)-5-chloro-N-(2-(S-methylsulfonimidoyl)pyridin-4-yl)-4-(trifluoromethyl)-2-(4-(trifluoromethyl)piperidin-1-yl)benzamide] |
| 50 to 100 | – | – | C[S@@](=N)(=O)c1cc(NC(=O)c2cc(Cl)c(C(F)(F)F)cc2N2CCC(F)(F)CC2)ccn1 [Example 248, (R)-5-chloro-2-(4,4-difluoropiperidin-1-yl)-N-(2-(S-methylsulfonimidoyl)pyridin-4-yl)-4-(trifluoromethyl)benzamide] |
| 5 to 50 | – | – | Cc1c(C(F)(F)F)cnc(N2CCO[C@H](C(F)(F)F)C2)c1C(=O)Nc1cccc([S@](C)(=N)=O)c1 [Example 240, 4-methyl-N-(3-((R)—S-methylsulfonimidoyl)phenyl)-5-(trifluoromethyl)-2-((S)-2-(trifluoromethyl)morpholino)nicotinamide] |
| 50 to 100 | – | – | NC(=O)[C@H]1C[C@H](NC(=O)c2cc(Cl)c(C(F)(F)F)cc2N2CCCC(F)(F)CC2)C1 [Example 252, N-((trans)-3-carbamoylcyclobutyl)-5-chloro-2-(4,4-difluoroazepan-1-yl)-4-(trifluoromethyl)benzamide] |
| 5 to 50 | – | – | Cc1c(C(=O)Nc2cccc([S@](C)(=N)=O)c2)c(N2CCCC(F)(F)CC2)nc(C2CC2)c1C(F)(F)F [Example 224, (R)-6-cyclopropyl-2-(4,4-difluoroazepan-1-yl)-4-methyl-N-(3-(S-methylsulfonimidoyl)phenyl)-5-(trifluoromethyl)nicotinamide] |
| 50 to 100 | – | – | C[S@](=N)(=O)c1cc(NC(=O)c2cc(Cl)c(C(F)(F)F)cc2N2CCC(C(F)(F)F)CC2)ccc1F [Example 246, (S)-5-chloro-N-(4-fluoro-3-(S-methylsulfonimidoyl)phenyl)-4-(trifluoromethyl)-2-(4-(trifluoromethyl)piperidin-1-yl)benzamide] |
| ≤ 5 | – | – | Cc1c(C(=O)Nc2cccc([S@@](C)(=N)=O)c2)c(N2CCCC(F)(F)CC2)nc(C2CC2)c1C(F)(F)F [Example 223, (S)-6-cyclopropyl-2-(4,4-difluoroazepan-1-yl)-4-methyl-N-(3-(S-methylsulfonimidoyl)phenyl)-5-(trifluoromethyl)nicotinamide] |
| 5 to 50 | – | – | Cc1c(C(F)(F)F)cnc(N2CCC(C(F)(F)F)CC2)c1C(=O)Nc1cccc([S@](C)(=N)=O)c1 [Example 242, (R)-4-methyl-N-(3-(S-methylsulfonimidoyl)phenyl)-5-(trifluoromethyl)-2-(4-(trifluoromethyl)piperidin-1-yl)nicotinamide] |
| 5 to 50 | – | – | C[S@@](=N)(=O)c1cccc(NC(=O)c2cc(Cl)c(C(F)(F)F)cc2N2CCC(F)(F)CC2)c1 [Example 222, (R)-5-chloro-2-(4,4-difluoropiperidin-1-yl)-N-(3-(S-methylsulfonimidoyl)phenyl)-4-(trifluoromethyl)benzamide] |
| 5 to 50 | – | – | C[S@](=N)(=O)c1cccc(NC(=O)c2cc(Cl)c(C(F)(F)F)cc2N2CCC(F)(F)CC2)c1 [Example 255, (S)-5-chloro-2-(4,4-difluoropiperidin-1-yl)-N-(3-(S-methylsulfonimidoyl)phenyl)-4-(trifluoromethyl)benzamide] |
| – | 100 to 200 | 100 to 200 | Cc1c(-c2cnn(C)c2)cnc(N2CCCC(F)(F)CC2)c1C(=O)Nc1ccc(F)c([S@](C)(=N)=O)c1 [Example 214, (R)-2-(4,4-difluoroazepan-1-yl)-N-(4-fluoro-3-(S-methylsulfonimidoyl)phenyl)-4-methyl-5-(1-methyl-1H-pyrazol-4-yl)nicotinamide] |
| – | ≤ 5 | ≤ 5 | Cc1c(Cl)c(C(F)(F)F)nc(N2CCCC(F)(F)CC2)c1C(=O)Nc1cccc([S@@](C)(=N)=O)c1 [Example 108, (S)-5-chloro-2-(4,4-difluoroazepan-1-yl)-4-methyl-N-(3-(S-methylsulfonimidoyl)phenyl)-6-(trifluoromethyl)nicotinamide] |
| – | > 200 | > 200 | Cc1nc(N2CCN(C)CC2)nc(N2CCCC(F)(F)CC2)c1C(=O)Nc1cccc([S@](C)(=N)=O)c1 [Example 157, (R)-4-(4,4-difluoroazepan-1-yl)-6-methyl-2-(4-methylpiperazin-1-yl)-N-(3-(S-methylsulfonimidoyl)phenyl)pyrimidine-5-carboxamide] |
